Data on four compounds can be found in ChEMBL document CHEMBL1201862, “PubChem BioAssay data set” (2004).

Test systems include HCT-15; OVCAR-5; NCI-H522; BT-549; MDA-N; NCI-H23; SW-620; 786-0; LOX IMVI; SN12C; KM12; UACC-257; MDA-MB-231; IGROV-1; EKVX; Malme-3M; SK-MEL-5; UACC-62; M14; MDA-MB-435.
Test in all cases: growth of human tumour cells (NCI), 48 h

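Grown in 96-well plates, cells were treated for 48 hours with each compound at five concentrations. Insufficient inhibition: endpoint recorded as highest concentration tested. Abbreviation: GI50, concentration required for 50% inhibition of growth.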 The source made the active and inactive calls. Cut-off read from the data, not from the text of the source: active = GI50 up to about 1.1 µM and inactive = higher.

As to `N#Cc1c(N)nc(S)c(C#N)c1-c1ccccc1`, the GI50 with HCT-15 is above 100 µM; in the assay on OVCAR-5, > 100 µM (inactive); in the assay on NCI-H522, 47.3 µM (inactive); in the assay on BT-549, 54 µM (inactive); with MDA-N, > 100 µM (inactive); with NCI-H23 it was > 100 µM (inactive). In addition, the GI50 in the assay with SW-620, in the assay with 786-0, in the assay on LOX IMVI, in the assay on SN12C, with KM12 and in the assay on UACC-257 was > 100 µM (inactive) in each case. In addition, the GI50 in the assay with MDA-MB-231, in the assay with IGROV-1, with EKVX, in the assay on Malme-3M, in the assay on SK-MEL-5 and in the assay with UACC-62 was > 100 µM (inactive) each time.

Take `N#Cc1ccccc1OCCOc1ccccc1C#N`: the GI50 with HCT-15 is above 100 µM; in the assay on OVCAR-5, > 100 µM (inactive); in the assay with M14 it was > 100 µM (inactive); in the assay on MDA-MB-435, > 100 µM (inactive); in the assay with NCI-H522, > 100 µM (inactive); in the assay with BT-549, > 100 µM (inactive). Further, the GI50 in the assay on NCI-H23, in the assay with SW-620, in the assay on 786-0, with LOX IMVI, with SN12C and in the assay with KM12 was > 100 µM (inactive) in each case. Further, the GI50 with UACC-257, in the assay with MDA-MB-231, in the assay with IGROV-1, in the assay on EKVX, in the assay with Malme-3M and in the assay with SK-MEL-5 was > 100 µM (inactive) in each case. Moreover, the GI50 with UACC-62 is > 100 µM (inactive).

Turning to `CC1=NN(c2nc(N)nc(CO)n2)C(C)(C)C1`, the GI50 with HCT-15 was above 100 µM; in the assay on OVCAR-5 it was > 100 µM (inactive); with M14, > 100 µM (inactive); in the assay on MDA-MB-435 it was > 100 µM (inactive); in the assay with NCI-H522, > 100 µM (inactive); in the assay on BT-549 it was > 100 µM (inactive). The GI50 in the assay with NCI-H23, with SW-620, with 786-0, with LOX IMVI, in the assay with SN12C and in the assay with KM12 was > 100 µM (inactive) throughout. Besides, the GI50 with UACC-257, with MDA-MB-231, in the assay on IGROV-1, in the assay on EKVX, in the assay on SK-MEL-5 and with UACC-62 was > 100 µM (inactive) throughout.

For `CN(C)c1ccc(/C=c2/c3ccccc3n3c2cc(NC(=O)NCCC[N+](C)(C)C)[n+]3C)cc1`, the GI50 with HCT-15 is above 100 µM; in the assay with OVCAR-5, > 100 µM (inactive); in the assay on M14, 72.8 µM (inactive); in the assay on MDA-MB-435 it was > 100 µM (inactive); in the assay on NCI-H522, 29.4 µM (inactive); in the assay on BT-549, > 100 µM (inactive). Further, the GI50 is > 100 µM (inactive) in the assay with NCI-H23; > 100 µM (inactive) in the assay on SW-620; > 100 µM (inactive) in the assay with 786-0; 61.2 µM (inactive) in the assay with LOX IMVI; 0.432 µM (active) with SN12C; > 100 µM (inactive) with KM12. Besides, the GI50 in the assay on UACC-257 is > 100 µM (inactive); in the assay with MDA-MB-231 it was > 100 µM (inactive); in the assay with IGROV-1, 16.4 µM (inactive); in the assay with EKVX, > 100 µM (inactive); in the assay on Malme-3M, > 100 µM (inactive); in the assay with SK-MEL-5 it was 47.6 µM (inactive). In the assay with UACC-62, the GI50 was > 100 µM (inactive).
